Measurements taken from patent US20260176289A1, “SMALL MOLECULE INHIBITORS OF KRAS PROTEINS” (Merck Sharp & Dohme LLC, priority 2022, published 2026).
Like-named read-outs stand apart in the source and are kept apart here.

Legend:
[1] = target: KRAS-G12V (Homo sapiens, UniProt P01116, G12V); experiment: SOS-catalyzed nucleotide exchange assay (Procedure A, TR-FRET), KRAS-G12V; assay type: biochemical; conditions: nucleotide exchange, read-out: KRAS G12V GNE IC50
How it was run: (§1)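 Inhibitors stabilizing the Bodipy-GDP state are detected as retained TR-FRET from a preformed biotinylated RAS/Tb-streptavidin complex. They are preincubated 60 min at room temperature, then human SOS and 3 mM GTP are added. G12V runs 90 min at 1.25 nM RAS/160 nM SOS. G12C (3 nM), WT (1 nM) and NRAS (1.25 nM) run 60 min with 40 nM SOS.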

[2] = test system: AsPC-1 cells; experiment: Cellular phospho-ERK assay, AsPC-1 cells (homozygous KRAS-G12D); assay type: cell-based; conditions: Homo sapiens, ASPC1, 2 h, read-out: AsPC1 pERK IC50
How it was run: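 Overnight-plated cells on collagen received test compound (up to 30 μM final, threefold steps, ten concentrations) for two hours. After lysis at room temperature, phosphorylated and total ERK were quantified together by Alpha SureFire, and IC50 is based on the phospho-to-total signal ratio.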

[3] = target: KRAS-G12D (Homo sapiens, UniProt P01116, G12D); experiment: SOS-catalyzed nucleotide exchange assay (Procedure A, TR-FRET), KRAS-G12D; assay type: biochemical; conditions: nucleotide exchange, read-out: KRAS G12D GNE IC50
How it was run: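 Signal ratio (520/495 nm, excitation 340 nm) reports Bodipy-GDP retention on biotinylated RAS after SOS-catalyzed exchange with 3 mM GTP. SOS was 40 nM, except 160 nM for G12V. Room-temperature exchange lasted 60 min (90 min for G12V), following a 60 min compound preincubation.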

[4] = target: KRAS-WT (Homo sapiens, UniProt P01116); experiment: SOS-catalyzed nucleotide exchange assay (Procedure A, TR-FRET), KRAS-WT; assay type: biochemical; conditions: nucleotide exchange, read-out: KRAS WT GNE IC50
How it was run: as §1

Sequence of KRAS-WT (P01116 with tags, fused parts or gaps isoform P01116-2): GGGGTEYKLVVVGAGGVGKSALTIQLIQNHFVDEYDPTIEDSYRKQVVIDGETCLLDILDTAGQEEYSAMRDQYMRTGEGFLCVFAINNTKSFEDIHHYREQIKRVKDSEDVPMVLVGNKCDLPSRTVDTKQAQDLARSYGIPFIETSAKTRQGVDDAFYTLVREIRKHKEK
Sequence of KRAS-G12D (P01116 with tags, fused parts or gaps isoform P01116-2 G12D): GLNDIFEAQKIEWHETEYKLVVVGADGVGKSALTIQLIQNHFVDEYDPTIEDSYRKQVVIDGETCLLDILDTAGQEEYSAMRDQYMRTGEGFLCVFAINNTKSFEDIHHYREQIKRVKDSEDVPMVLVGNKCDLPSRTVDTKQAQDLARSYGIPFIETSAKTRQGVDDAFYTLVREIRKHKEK
Sequence of KRAS-G12V (P01116 with tags, fused parts or gaps isoform P01116-2 G12V): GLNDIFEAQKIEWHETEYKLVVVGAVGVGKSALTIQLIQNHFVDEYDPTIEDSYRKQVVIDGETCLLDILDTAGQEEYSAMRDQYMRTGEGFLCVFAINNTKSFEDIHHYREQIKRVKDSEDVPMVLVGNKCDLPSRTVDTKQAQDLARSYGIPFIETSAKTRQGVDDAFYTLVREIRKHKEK

| Compound | IC50 [1] [µM] | IC50 ([2]; KRAS-G12D, 2 hours) [µM] | IC50 [3] [µM] | IC50 [4] [µM] | IC50 ([2]; 2 hours compound incubation) [µM] |
| --- | --- | --- | --- | --- | --- |
| C[C@@]1(O)COCCN(c2nc(OC[C@@]34CCCN3C[C@H](F)C4)nc3sc4c(-c5cc(O)cc(Cl)c5C5CC5)nccc4c23)C1 [Ex-124, (S)-4-(8-(3-chloro-2-cyclopropyl-5-hydroxyphenyl)-2-(((2R,7aS)-2-fluorotetrahydro-1H-pyrrolizin-7a(5H)-yl)methoxy)pyri-do[4′,3′:4,5]thieno[2,3-d]pyrimidin-4-yl)-6-methyl-1,4-oxazepan-6-ol] | 0.0241 | 0.151 | 0.0111 | 0.0394 |  |
| CN1CC[C@H]2C(Oc3nc(N4CCOC[C@@](C)(O)C4)c4c(n3)sc3c(-c5c(C6CC6)c(Cl)cc6[nH]ncc56)nccc34)C[C@H]21 (stereo partly drawn) [Ex-216, (6S)-4-(8-(6-chloro-5-cyclopropyl-1H-indazol-4-yl)-2-(((1R,5R,6S)-2-methyl-2-azabicyclo [3.2.0]heptan-6-yl)-oxy)pyrido[4′,3′: 4,5]thieno[2,3-d]pyrimidin-4-yl)-6-methyl-1,4-oxaze-pam-6-ol] | 0.864 |  | 0.464 | 1.59 | 2.9 |
| C[C@@]1(O)COCCN(c2nc(OC[C@@]34CCCN3C[C@H](F)C4)nc3sc4c(-c5cccc6c5CC5CC65)nccc4c23)C1 (single isomer, unassigned) [Ex-119] | 0.157 | 2.15 | 0.23 | 0.662 |  |
| CO[C@H]1C[C@@H](COc2nc(N3CCOC[C@@](C)(O)C3)c3c(n2)sc2c(-c4c(C5CC5)c(C(F)(F)F)cc5[nH]ncc45)nccc23)N(C)C1 [Ex-84, (6S)-4-(8-(5-cyclopropyl-6-(trifluoromethyl)-1H-indazol-4-yl)-2-(((2S,4S)-4-methoxy-1-methylpyrrolidin-2-yl)methoxy)pyrido[4′,3′:4,5]thi-eno[2,3-d]pyrimidin-4-yl)-6-methyl-1,4-oxazepan-6-ol] | 0.847 | 2.89 | 0.67 | 1.38 |  |
| Cc1cc2[nH]ncc2c(-c2nccn3c2c(Cl)c2nc(OC[C@@]45CCCN4C[C@H](F)C5)nc(N4CCOC[C@@](C)(O)C4)c23)c1C1CC1 (single isomer, unassigned) [Ex-297] | 0.0576 | 0.636 | 0.0231 | 0.0678 |  |
| C[C@@H]1CN(C[C@@]2(COc3nc(N4CCOC[C@@](C)(O)C4)c4c(n3)sc3c(-c5c(C6(F)CC6)c(Cl)cc6[nH]ncc56)nccc34)CC2(F)F)C[C@H](C)O1 [Ex-246, (6S)-4-(8-(6-chloro-5-(1-fluorocyclopropyl)-1H-indazol-4-yl)-2-(((R)-1-(((2R,6S)-2,6-dimethylmorpholino)methyl)-2,2-difluorocyclopropyl)methoxy)pyrido[4′,3′:4,5]thieno[2,3-d]pyrimidin-4-yl)-6-methyl-1,4-oxazepan-6-ol] | 0.275 |  | 0.0968 | 0.374 | 1.17 |
| C[C@H]1CN(C[C@@]2(COc3nc(N4CCOC[C@@](C)(O)C4)c4c(n3)sc3c(-c5c(C6(F)CC6)c(Cl)cc6[nH]ncc56)nccc34)CC2(F)F)[C@@H](C)CO1 [Ex-241, (6S)-4-(8-(6-chloro-5-(1-fluorocyclopropyl)-1H-indazol-4-yl)-2-(((R)-1-(((2S,5S)-2,5-dimethylmorpholino)methyl)-2,2-difluorocyclopropyl)methoxy)pyrido[4′,3′:4,5]thieno[2,3-d]pyrimidin-4-yl)-6-methyl-1,4-oxazepan-6-ol] | 0.308 |  | 0.0982 | 1.86 | 1.41 |
| C[C@@]1(O)COCCN(c2nc(OC[C@]3(CN4CC(C#N)C4)CC3(F)F)nc3sc4c(-c5c(C6(F)CC6)c(Cl)cc6[nH]ncc56)nccc4c23)C1 [Ex-238, 1-(((IR)-1-(((8-(6-chloro-5-(1-fluorocyclopropyl)-1H-indazol-4-yl)-4-((S)-6-hydroxy-6-methyl-1,4-oxazepan-4-yl)pyrido[4′,3′:4,5]thieno[2,3-d]pyrimidin-2-yl)oxy)methyl)-2,2-difluorocyclopropyl)methyl]a-zetidine-3-carbonitrile] | 0.4 |  | 0.112 | 0.446 | 4.12 |
| CN(C)C[C@@]1(COc2nc(N3CCOC[C@@](C)(O)C3)c3c(n2)sc2c(-c4c(C5CC5)c(Cl)cc5[nH]ncc45)nncc23)CC1(F)F [Ex-287, (6S)-4-(8-(6-chloro-5-cyclopropyl-1H-indazol-4-yl)-2-(((R)-1-((dimethylamino)methyl)-2,2-difluorocyclopropyl)meth-oxy)pyrimido[5′,4′:4,5]thi-eno[2,3-d]pyridazin-4-yl)-6-methyl-1,4-oxazepan-6-ol] | 0.0159 | 0.0415 | 0.00528 | 0.0102 |  |

Now from value to molecule:

| IC50 [1] [µM] | IC50 ([2]; KRAS-G12D, 2 hours) [µM] | IC50 [3] [µM] | IC50 [4] [µM] | IC50 ([2]; 2 hours compound incubation) [µM] | Compound |
| --- | --- | --- | --- | --- | --- |
| 0.0368 | 0.426 | 0.0354 | 0.064 |  | Cn1c2nc(OC[C@@]34CCCN3C[C@H](F)C4)nc(N3CCOC[C@@](C)(O)C3)c2c2ccnc(-c3c(C4CC4)c(Cl)cc4[nH]ncc34)c21 (single isomer, unassigned) [Ex-2] |
| 0.0579 | 0.457 | 0.0936 | 0.218 |  | C=C(c1c(C)cc2[nH]ncc2c1-c1nccc2c1sc1nc(OC[C@@]34CCCN3C[C@H](F)C4)nc(N3CCOC[C@@](C)(O)C3)c12)C(F)(F)F [Ex-66, (6S)-4-(2-(((2R,7aS)-2-fluorotetrahydro-1H-pyrrolizin-7a(5H)-yl)methoxy)-8-(6-methyl-5-(3,3,3-trifluoroprop-1-en-2-yl)-1H-indazol-4-yl)pyrido[4′,3′:4,5]thieno [2,3-d]pyrimidin-4-yl)-6-methyl-1,4-oxazepan-6-ol] |
| 0.0247 | 0.258 | 0.00896 | 0.0224 |  | Cc1cc2[nH]ncc2c(-c2nccc3c2C2(CC2)c2nc(OC[C@@]45CCCN4C[C@H](F)C5)nc(N4CCOC[C@@](C)(O)C4)c2-3)c1C(F)(F)F (single isomer, unassigned) [Ex-307] |
| 0.436 |  | 0.409 | 0.98 | 2.49 | Cc1cc2[nH]ncc2c(-c2nccc3c2sc2nc(OC[C@@]45CCCN4C[C@H](F)C5)nc(NCC4COC4)c23)c1C(F)(F)F [Ex-186, 2-(((2R,7aS)-2-fluorotetra-hydro-1H-pyrrolizin-7a(5H)-yl)methoxy)-8-(6-methyl-5-(trifluorometh-yl)-1H-indazol-4-yl)-N-(oxetan-3-ylmethyl)pyrido [4′,3′:4,5]thieno[2,3-d] pyrimidin-4-amine] |
| 0.0593 | 1.93 | 0.0396 | 0.0741 |  | COC(=O)c1cc2[nH]ncc2c(-c2nccc3c2sc2nc(OC[C@@]45CCCN4C[C@H](F)C5)nc(N4CCOC[C@@](C)(O)C4)c23)c1C1CC1 [Ex-49, Methyl 5-cyclopropyl-4-(2-(((2R,7aS)-2-fluorotetrahydro-1H-pyrrolizin-7a(5H)-yl)methoxy)-4-((S)-6-hydroxy-6-methyl-1,4-oxazepan-4-yl)pyrido[4′,3′:4,5]thieno [2,3-d]pyrimidin-8-yl)-1H-indazole-6-carboxylate] |
| 0.14 | 1.41 | 0.115 | 0.234 |  | C[C@@]1(O)COCCN(c2nc(OC[C@@]34CCCN3C[C@H](F)C4)nc3sc4c(-c5c(C6CC6)c(C#N)cc6[nH]ncc56)nccc4c23)C1 [Ex-51, 5-cyclopropy1-4-(2-(((2R,7aS)-2-fluorotetrahydro-1H-pyrrolizin-7a(5H)-yl)methoxy)-4-((S)-6-hydroxy-6-methyl-1,4-oxazepan-4-yl)pyrido[4′,3′:4,5]thieno [2,3-d]pyrimidin-8-yl)-1H-indazole-6-carbonitrile] |
| 0.34 | 1.86 | 0.226 | 0.482 |  | C[C@@]1(O)COCCN(c2nc(OC[C@@]34CCCN3C[C@H](F)C4)nc3sc4c(-c5c6c(cc7[nH]ncc57)CCC6C(F)(F)F)nccc4c23)C1 (stereo partly shown) [Ex-92] |
